Experimental data reported in patent US7781565B2 (priority 2006, dated 2010).
Entries after “also recorded” stand apart in the source; their conditions may differ.

System: NCI-60 cell lines
Type: cell-based, human

## FGVSQVH
  Cell Line the peptide is associated with (peptide recovered from phage library selection on this NCI-60 cell line): CAIK-1 Renal

## YDGLVSG
  Cell Line (NCI-60 cell line the peptide is associated with): COLO-205-Colon

## LSGSVLQ
  Cell Line (NCI-60 cell line the peptide is associated with): HCT-116 Colon

## SRLSYYA
  Cell Line (NCI-60 cell line the peptide is associated with): KM-12C Colon

## RAGRGFE
  Cell Line (NCI-60 cell line the peptide and its motif are associated with): UACC62 Melanoma

## GSGRGVA
  Cell Line with which the peptide (and its tripeptide motif) is associated: Hop-92-Lung

## CRGSIGA
  Cell Line the peptide is associated with (peptide recovered from phage library selection on this NCI-60 cell line): BT-549 Breast

## RKPGGGR
  Cell Line (NCI-60 cell line the peptide is associated with): HT-29 Colon

## GVRPFPR
  Cell Line with which the peptide (and its tripeptide motif) is associated: Hop-62-Lung

## VFQRSSG
  Cell Line with which the peptide (and its tripeptide motif) is associated: A549-Lung

## QLVSGSL
  Cell Line (NCI-60 cell line the peptide is associated with): HCT-116 Colon

## GGLSNVV
  Cell Line (NCI-60 cell line the peptide is associated with): SW620-Colon

## TGRVVRR
  Cell Line with which the peptide (and its tripeptide motif) is associated: CCRF-CEM Leukemia

## LGLVFTR
  Cell Line the peptide is associated with (peptide recovered from phage library selection on this NCI-60 cell line): T-47D Breast

## HVRSSYA
  Cell Line the peptide is associated with (peptide recovered from phage library selection on this NCI-60 cell line): HS 578 T Breast

## VVMIAGS
  Cell Line the peptide is associated with (peptide recovered from phage library selection on this NCI-60 cell line): MDA-MB-231 Breast

## GLGGWVA
  Cell Line with which the peptide (and its tripeptide motif) is associated: H226-Lung

## DLGLRPV
  Cell Line with which the peptide (and its tripeptide motif) is associated: Molt-4-Leukemia

## GSTLLSR
  Cell Line (NCI-60 cell line the peptide is associated with): LOX-IMVI Melanoma

## LRGSYVL
  Cell Line (NCI-60 cell line the peptide is associated with): SW620-Colon

## GSVFGTP
  Cell Line the peptide is associated with (peptide recovered from phage library selection on this NCI-60 cell line): UO31 Renal

## SLVSPRT
  Cell Line (NCI-60 cell line the peptide and its motif are associated with): OVCAR-5 Ovarian

## PRAGGRW
  Cell Line with which the peptide (and its tripeptide motif) is associated: EKVX-Lung

## PQGPSSV
  Cell Line the peptide is associated with (peptide recovered from phage library selection on this NCI-60 cell line): ACHN Renal

## GLLSGGT
  Cell Line (NCI-60 cell line the peptide and its motif are associated with): IGROV1 Ovarian

## DRASSWA
  Cell Line (NCI-60 cell line the peptide and its motif are associated with): A498 Renal

## RSSIAPS
  Cell Line with which the peptide (and its tripeptide motif) is associated: Molt-4-Leukemia

## AGRRFGG
  Cell Line with which the peptide (and its tripeptide motif) is associated: EKVX-Lung

## RAVERVA
  Cell Line the peptide is associated with (peptide recovered from phage library selection on this NCI-60 cell line): CAIK-1 Renal

## FVDIAGS
  Cell Line with which the peptide (and its tripeptide motif) is associated: H23-Lung

## HAGSRAS
  Cell Line (NCI-60 cell line the peptide and its motif are associated with): IGROV1 Ovarian

## QRAAVIV
  Cell Line (NCI-60 cell line the peptide is associated with): SNB-19 CNS; also recorded: SF-539 CNS

## RSSIDVG
  Cell Line the peptide is associated with (peptide recovered from phage library selection on this NCI-60 cell line): NCI/ADR-RES Breast

## GLREAHV
  Cell Line (NCI-60 cell line the peptide and its motif are associated with): UACC62 Melanoma

## QGGRSGV
  Cell Line the peptide is associated with (peptide recovered from phage library selection on this NCI-60 cell line): A498 Renal

## RANGVLV
  Cell Line with which the peptide (and its tripeptide motif) is associated: H23-Lung

## PRASDIL
  Cell Line the peptide is associated with (peptide recovered from phage library selection on this NCI-60 cell line): BT-549 Breast

## FGLRMSN
  Cell Line the peptide is associated with (peptide recovered from phage library selection on this NCI-60 cell line): ACHN Renal

## WLLSSEI
  Cell Line (NCI-60 cell line the peptide and its motif are associated with): PC3 Prostate

## NELRVCR
  Cell Line the peptide is associated with (peptide recovered from phage library selection on this NCI-60 cell line): SN12C Renal

## SDVSGSS
  Cell Line with which the peptide (and its tripeptide motif) is associated: H322-Lung

## LSKGGSE
  Cell Line the peptide is associated with (peptide recovered from phage library selection on this NCI-60 cell line): T-47D Breast

## AAGREFR
  Cell Line with which the peptide (and its tripeptide motif) is associated: Hop-62-Lung

## RRLSYRD
  Cell Line with which the peptide (and its tripeptide motif) is associated: RPMI-8226-Leukemia

## GARAVAP
  Cell Line the peptide is associated with (peptide recovered from phage library selection on this NCI-60 cell line): HS 578 T Breast

## SGGSVGF
  Cell Line the peptide is associated with (peptide recovered from phage library selection on this NCI-60 cell line): MDA-MB-231 Breast

## SVEGRGV
  Cell Line with which the peptide (and its tripeptide motif) is associated: A549-Lung

## RVRSSLA
  Cell Line the peptide is associated with (peptide recovered from phage library selection on this NCI-60 cell line): HS 578 T Breast

## YAASLMG
  Cell Line (NCI-60 cell line the peptide is associated with): SNB-75 CNS

## NRAVLSA
  Cell Line (NCI-60 cell line the peptide and its motif are associated with): SK-OV-3-3 Ovarian

## GLWYRAV
  Cell Line (NCI-60 cell line the peptide and its motif are associated with): SK-MEL-28 Melanoma

## NAASLPS
  Cell Line with which the peptide (and its tripeptide motif) is associated: SR Leukemia

## YLAGGKA
  Cell Line (NCI-60 cell line the peptide and its motif are associated with): IGROV1 Ovarian

## WDQGSGY
  Cell Line (NCI-60 cell line the peptide and its motif are associated with): OVCAR-4 Ovarian

## LPGRLRV
  Cell Line (NCI-60 cell line the peptide and its motif are associated with): OVCAR-5 Ovarian

## LLSRRVG
  Cell Line (NCI-60 cell line the peptide is associated with): SNB-75 CNS

## VAVGVRS
  Cell Line the peptide is associated with (peptide recovered from phage library selection on this NCI-60 cell line): HS 578 T Breast

## GAVRSVM
  Cell Line the peptide is associated with (peptide recovered from phage library selection on this NCI-60 cell line): TK-10 Renal

## GSSHDAL
  Cell Line (NCI-60 cell line the peptide is associated with): SNB-19 CNS; also recorded: SF-539 CNS

## PRLSWVL
  Cell Line (NCI-60 cell line the peptide is associated with): HT-29 Colon

## LERAVRT
  Cell Line (NCI-60 cell line the peptide is associated with): HT-29 Colon

## VGSSHGL
  Cell Line (NCI-60 cell line the peptide and its motif are associated with): SK-MEL-28 Melanoma

## DGVSSDY
  Cell Line (NCI-60 cell line the peptide is associated with): COLO-205-Colon

## PLLREVG
  Cell Line the peptide is associated with (peptide recovered from phage library selection on this NCI-60 cell line): SN12C Renal

## YGSGGRG
  Cell Line (NCI-60 cell line the peptide is associated with): HT-29 Colon

## PRASSTG
  Cell Line the peptide is associated with (peptide recovered from phage library selection on this NCI-60 cell line): SN12C Renal
